# Measured values published in patent US9718792B2, “Isoxazoline hydroxamic acid derivatives as LpxC inhibitors” (priority 2014, dated 2017).
# Tests used:
# [1] = molecular target: P. aeruginosa LpxC (Pseudomonas aeruginosa (strain ATCC 15692 / DSM 22644 / CIP 104116 / JCM 14847 / LMG 12228 / 1C / PRS 101 / PAO1), UniProt P47205); assay: P. aeruginosa LpxC Inhibition Assay; type: biochemical; conditions: 1 nM P. aeruginosa LpxC, 2 μM substrate, LC-MS/MS; read-out: PA LpxC IC50
# Procedure, shortened: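 Compounds pre-incubated 30 min at room temperature with 1 nM LpxC, then 2 μM UDP-3-O-(R-3-hydroxydecanoyl)-GlcNAc added; 20 min reaction in 50 mM sodium phosphate pH 7.5, 0.005% Triton X-100, quenched with HOAc. Product quantified by LC-MS/MS against calibration curve; IC50 from four-parameter logistic fit.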
# [2] = system: P. aeruginosa PAO1; assay: Susceptibility Testing (MIC, broth microdilution); type: cell-based, Pseudomonas aeruginosa; conditions: Pseudomonas aeruginosa, PAO1, 20 h, P. aeruginosa PAO1, broth microdilution, 20 hours; read-out: PAO1 MIC
# Procedure, shortened: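 Broth microdilution per CLSI in cation-adjusted Mueller-Hinton broth, inoculum ~5×10^5 CFU/mL, two-fold compound dilutions (1% DMSO final). Plates incubated 20 h in ambient air at 35° C. MIC is the lowest concentration preventing visible growth, confirmed by OD 600 nm reading.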
SMILES,IC50 [1] [nM],MIC [2] [µg/mL]
"COc1ccc(-c2ccc(C3=NO[C@@H](C[C@](C)(C(=O)NO)S(C)(=O)=O)C3)cc2)c(F)c1 [Compound 59, (R)-3-((R)-3-(2′-fluoro-4′-methoxy-[1,1′-biphenyl]-4-yl)-4,5-dihydroisoxazol-5-yl)-N-hydroxy-2-methyl-2-(methylsulfonyl)]",< 0.5,0.35
"CC(CC1CC(c2ccc(Br)cc2)=NO1)(C(=O)NO)S(C)(=O)=O (single isomer, unassigned) [Compound 1-B, 3-(3-(4-bromophenyl)-4,5-dihydroisoxazol-5-yl)-N-hydroxy-2-methyl-2-(methylsulfonyl)propanamide]",< 0.5,1
"C[C@@](C[C@H]1CC(c2ccc(-c3ccc(C(F)(F)F)nc3)cc2)=NO1)(C(=O)NO)S(C)(=O)=O [Compound 64, (R)—N-hydroxy-2-methyl-2-(methylsulfonyl)-3-((R)-3-(4-(6-(trifluoromethyl)pyridin-3-yl)phenyl)-4,5-dihydroisoxazol-5-yl)propanamide]",< 0.5,0.25
"C[S+]([O-])c1ccc(-c2ccc(C3=NO[C@@H](C[C@](C)(C(=O)NO)S(C)(=O)=O)C3)cc2)cc1 (stereo partly drawn) [Compound 74, (2R)—N-hydroxy-2-methyl-3-((5R)-3-(4′-(methylsulfinyl)-[1,1′-biphenyl]-4-yl)-4,5-dihydroisoxazol-5-yl)-2-(methylsulfonyl) propanamide]",< 0.5,0.71
"CC(C)(C#N)c1ccc(-c2ccc(C3=NO[C@@H](C[C@](C)(C(=O)NO)S(C)(=O)=O)C3)cc2)cc1 [Compound 69, (R)-3-((R)-3-(4′-(2-cyanopropan-2-yl)-[1,1′-biphenyl]-4-yl)-4,5-dihydroisoxazol-5-yl)-N-hydroxy-2-methyl-2-(methylsulfonyl)propanamide]",< 0.5,0.71
"CC(CC1CC(c2ccc(C3CC3)cc2)=NO1)(C(=O)NO)S(C)(=O)=O (single isomer, unassigned) [Compound 5-A, 3-(3-(4-cyclopropylphenyl)-4,5-dihydroisoxazol-5-yl)-N-hydroxy-2-methyl-2-(methylsulfonyl)propanamide]",7,2
"COCCOc1ccc(-c2ccc(C3=NO[C@@H](C[C@](C)(C(=O)NO)S(C)(=O)=O)C3)cc2)cc1 [Compound 48, (R)—N-hydroxy-3-((R)-3-(4′-(2-methoxyethoxy)-[1,1′-biphenyl]-4-yl)-4,5-dihydroisoxazol-5-yl)-2-methyl-2-(methylsulfonyl)propanamide]",1,0.25
"CC(C)(O)[C@H]1C[C@@H](C#Cc2ccc(C3=NO[C@@H](C[C@](C)(C(=O)NO)S(C)(=O)=O)C3)cc2)C1 [Compound 39B, (R)—N-hydroxy-3-((R)-3-(4-(((1 s,3S)-3-(2-hydroxypropan-2-yl)cyclobutyl)ethynyl)phenyl)-4,5-dihydroisoxazol-5-yl)-2-methyl-2-(methylsulfonyl)propanamide]",2,1
"C[C@@](C[C@H]1CC(c2ccc(-c3ccc(S(C)(=O)=O)cc3)cc2)=NO1)(C(=O)NO)S(C)(=O)=O [Compound 58, (R)—N-hydroxy-2-methyl-2-(methylsulfonyl)-3-((R)-3-(4′-(methylsulfonyl)-[1,1-biphenyl]-4-yl)-4,5-dihydroisoxazol-5-yl)]",< 0.5,0.5
"C[C@@](C[C@H]1CC(c2ccc(C#CCCF)cc2)=NO1)(C(=O)NO)S(C)(=O)=O [Compound 22, (R)-3-((R)-3-(4-(4-fluorobut-1-yn-1-yl)phenyl)-4,5-dihydroisoxazol-5-yl)-N-hydroxy-2-methyl-2-(methylsulfonyl)propanamide]",< 0.5,0.5
"C[C@@](C[C@H]1CC(c2ccc(-c3ccc(CO)nc3)cc2)=NO1)(C(=O)NO)S(C)(=O)=O [Compound 65, (R)—N-hydroxy-3-((R)-3-(4-(6-(hydroxymethyl)pyridin-3-yl)phenyl)-4,5-dihydroisoxazol-5-yl)-2-methyl-2-(methylsulfonyl)propanamide]",< 0.5,1
"CC(CC1CC(c2ccc(C#CCCO)cc2)=NO1)(C(=O)NO)S(C)(=O)=O (single isomer, unassigned) [Compound 10-B, N-hydroxy-3-(3-(4-(4-hydroxybut-1-yn-1-yl)phenyl)-4,5-dihydroisoxazol-5-yl)-2-methyl-2-(methylsulfonyl)propanamide]",< 0.5,1
"C[C@@](C[C@H]1CC(c2ccc(-c3ccc(S(C)(=N)=O)cc3)cc2)=NO1)(C(=O)NO)S(C)(=O)=O (stereo partly drawn) [Compound 76, (2R)—N-hydroxy-2-methyl-3-((5R)-3-(4′-(S-methylsulfonimidoyl)-[1,1′-biphenyl]-4-yl)-4,5-dihydroisoxazol-5-yl)-2-(methylsulfonyl)propanamide]",< 0.5,2
"C[C@@](C[C@H]1CC(c2ccc(-n3nccn3)cc2)=NO1)(C(=O)NO)S(C)(=O)=O [Compound 43, (R)-3-((R)-3-(4-(2H-1,2,3-triazol-2-yl)phenyl)-4,5-dihydroisoxazol-5-yl)-N-hydroxy-2-methyl-2-(methylsulfonyl)propanamide]",5,1.4

# Results, then the molecule that gave them:
IC50 [1] [nM],MIC [2] [µg/mL],SMILES
< 0.5,0.5,"C[C@@](C[C@H]1CC(c2ccc(-c3ccc(C(O)CCO)cc3)cc2)=NO1)(C(=O)NO)S(C)(=O)=O (stereo partly drawn) [Compound 96, (2R)-3-((5R)-3-(4′-(1,3-dihydroxypropyl)-[1,1′-biphenyl]-4-yl)-4,5-dihydroisoxazol-5-yl)-N-hydroxy-2-methyl-2-(methylsulfonyl)propanamide]"
< 0.5,0.5,"C[C@@H](O)Cc1ccc(-c2c(F)cc(C3=NO[C@@H](C[C@](C)(C(=O)NO)S(C)(=O)=O)C3)cc2F)cc1 [Compound 122, (R)-3-((R)-3-(2,6-difluoro-4′-((R)-2-hydroxypropyl)-[1,1′-biphenyl]-4-yl)-4,5-dihydroisoxazol-5-yl)-N-hydroxy-2-methyl-2-(methylsulfonyl)propanamide]"
< 0.5,0.71,"COc1ccc(-c2ccc(C3=NO[C@@H](C[C@](C)(C(=O)NO)S(C)(=O)=O)C3)cc2F)c(C)c1 [Compound 113, (R)-3-((R)-3-(2-fluoro-4′-methoxy-2′-methyl-[1,1′-biphenyl]-4-yl)-4,5-dihydroisoxazol-5-yl)-N-hydroxy-2-methyl-2-(methylsulfonyl)propanamide]"
< 0.5,2,"C[C@@H](O)[C@@H](O)Cc1ccc(-c2ccc(C3=NO[C@@H](C[C@](C)(C(=O)NO)S(C)(=O)=O)C3)cc2)cc1 [Compound 93, (R)-3-((R)-3-(4′-((2S,3R)-2,3-dihydroxybutyl)-[1,1′-biphenyl]-4-yl)-4,5-dihydroisoxazol-5-yl)-N-hydroxy-2-methyl-2-(methylsulfonyl) propanamide]"
< 0.5,1,"C[C@@](C[C@H]1CC(c2ccc(-c3ccncc3)cc2)=NO1)(C(=O)NO)S(C)(=O)=O [Compound 78, (R)-3-((R)-3-(4-(pyridin-4-yl)phenyl)-4,5-dihydroisoxazol-5-yl)-N-hydroxy-2-methyl-2-(methylsulfonyl)propanamide]"
0.6,0.18,"C[C@@](C[C@H]1CC(c2ccc(-c3ccc(CO)cc3)c(F)c2)=NO1)(C(=O)NO)S(C)(=O)=O [Compound 103, (R)-3-((R)-3-(2-fluoro-4′-(hydroxymethyl)-[1,1′-biphenyl]-4-yl)-4,5-dihydroisoxazol-5-yl)-N-hydroxy-2-methyl-2-(methylsulfonyl)propanamide]"
< 0.5,0.35,"COc1cc(F)c(-c2ccc(C3=NO[C@@H](C[C@](C)(C(=O)NO)S(C)(=O)=O)C3)cc2)c(F)c1 [Compound 79, (R)-3-((R)-3-(2′,6′-difluoro-4′-methoxy-[1,1′-biphenyl]-4-yl)-4,5-dihydroisoxazol-5-yl)-N-hydroxy-2-methyl-2-(methylsulfonyl)propanamide]"
